# Measured values: patent US20240158386A1, “BENZOXAZOLONE INHIBITORS OF INFLAMMASOMES” (ICAHN SCHOOL OF MEDICINE AT MOUNT SINAI, priority 2021, published 2024)
# Like-named read-outs stand apart in the source and are kept apart here.
# Experiments:
# [1] = target: T1, NLRP3 inflammasome (Mus musculus, UniProt Q8R4B8); experiment: NLRP3 inflammasome activation assay: IL-1β release by primary microglia after LPS and ATP; type: cell-based, murine
# T1 construct: endogenous in cells; host or cells: primary microglia from cortices of 2-3 day old WT mouse pups
# Method: Murine primary microglia. Mixed cortical cultures were prepared as previously described (Bronstein, R. et al. J. Vis. Exp. JoVE 50647 (2013) doi:10.3791/50647). Briefly, cortices from 2-3 days old, WT, or NLRP3 KO pups were isolated, digested, and seeded at a density of 8 cortices per 10 ml petri dish. Every three days, the medium was replaced by fresh culture medium (DMEM, 10% FBS, 1% penicillin-streptomycin). After three weeks, mixed glial cultures had reached confluence, and microglia cells were isolated by mild trypsinization as previously described (Saura, J. et al. Glia 44, 183-189 (2003)). In brief, cells were washed with culture medium without FBS and treated with a mixture of trypsin 0.25% (without EDTA) and DMEM-F12 medium in a 1:3 proportion. After an incubation period of approximately 40 min, an intact layer of mixed glial cells detached, leaving microglia attached firmly to the bottom of the Petri-dish. Pure microglia were then isolated by 15 min incubation with trypsin (0.05%)-EDTA at 37° C., followed by gentle shaking. Cells were counted and seeded at the desired density, typically 7.5·10^4 cells/well in 24 well-plates.
# (§1) NLRP3 inflammasome activation assay. Primary microglia cultures were incubated with the compounds that inhibited IL-1β production in THP1 macrophages. Cells pretreated with 100 μM of the compounds—or with the same DMSO volume, in the case of control samples—were primed with 400 ng/ml LPS for 3 hours, and activated with 4.5 mM ATP for 45 minutes or […] nigericin for 1 hour. Dose-response curves were conducted by incubating microglia cultures with different concentrations of the selected compounds, ranging from 0.001 to 100 μM, 1 hour before NLRP3 activation with LPS and ATP. Supernatants were collected for IL-1β and toxicity assessments.
# Cytokine quantification. IL-1β in cell supernatants and brain tissue samples—after the different treatment groups—was quantified using the Mouse IL-1 beta/IL-1F2 DuoSet ELISA kit (R&D systems), IL-6 in cell culture supernatant was measured through the Mouse IL-6 ELISA kit (ThermoFisher), TNF-α in cell culture supernatants was determined using the Mouse TNF-alpha DuoSet ELISA (R*D systems), and IL-18 in brain tissue was measured through the IL-18 Mouse ELISA Kit (Invitrogen) following the manufacturers' recommended protocol. IL-1β precursor and cleaved IL-1β in the FC of mice treated with vehicles, LPS, or C77-LPS was assessed by western blot. All samples were run in technical duplicates.
# [2] = test system: ASC specks following NLRP3 activation; experiment: ASC speck formation / ASC oligomerization in m-Cerulean ASC labeled macrophages; type: cell-based, murine; conditions: NLRP3 activation with LPS and ATP or HMGB1 and ATP (FIG. 3F)
# Method: m-Cerulean ASC labeled macrophages. NLRP3 Knock Out immortalized murine macrophages, stably expressing m-Cerulean-ASC, and NLRP3-Flag were a kind donation of Prof. Eicke Latz, (Institute of Innate Immunity, University of Bonn, Germany). Murine macrophages were maintained in high glucose DMEM medium supplemented with 10% FBS, 1% sodium pyruvate, and passaged every 2-3 days, before reaching confluence.
# For ASC speck formation evaluation, murine macrophages were seeded in 96 well SCREENSTAR black microplates with clear base, 24 hours before stimulation. Then, cells were incubated for 1 hour with different concentrations of the inhibitors, or with the same DMSO volume for positive and negative controls for NLRP3 activation—DMSO-LPS-ATP or only DMSO, respectively. 0.5 μM MCC950 was used as a positive control for inhibition of NLRP3-mediated ASC oligomerization. NLRP3 activation was induced through treatment with 250 ng/ml LPS for 2.5 hours, followed by addition of 4.5 mM ATP for 45 min. Cells were then fixed and counterstained in a single step, as previously described (Stutz, A. et al. ASC Speck Formation as a Readout for Inflammasome Activation. in The Inflammasome (eds. De Nardo, C. M. & Latz, E.) vol. 1040 91-101 (Humana Press, 2013).). For that, a stock solution of DRAQS in formaldehyde was used, being the final concentrations 1% formaldehyde and 2.5 μM DRAQ5.
# ASC oligomerization determination. […] ASC specks in cells pretreated with C75, C77, C78, and C97, before NLRP3 activation (as above indicated), were visualized with a widefield Leica DMi8 fluorescence microscope, using the 20× objective. […] For image analysis and speck quantification, ImageJ was used https://imagej.nih.gov/ij/index.html. Speck and nuclei quantification was performed as previously described in Stutz et al. When required (overlapping nuclei), the watershed separation algorithm was used to separate the particles. […] The rate of speck positive cells was calculated by normalizing the number of speck positive cells to the number of nuclei. […]
# [3] = test system: microglia cultures; experiment: Cell viability assay (CytoTox 96 cytotoxicity); type: cell-based, murine
# Method: as §1
# Cell viability assays. The cytotoxic effect of the compounds identified by in-vitro screening was assayed with the Cyto Tox 96® NonRadioactive Cytotoxicity Assay (Promega), following the recommendations of the manufacturer.
# [4] = target: T2, Human recombinant NLRP3 protein (Homo sapiens, UniProt Q96P20); experiment: Inhibition of the NLRP3 ATPase activity (cell-free, ADP-Glo); type: biochemical; conditions: isolated protein, 10 μM ATP
# T2 construct: purchased BPS Bioscience, San Diego CA
# Method: Inhibition of the NLRP3 ATPase activity. The efficacy of C77 to inhibit ATP hydrolysis by NLRP3 was directly assayed using a cell-free assay. Human recombinant NLRP3 protein (BPS Bioscience, San Diego CA) was incubated at 37° C. with different concentrations of C77 for 20 min, as previously described (Cocco, M., et al. (2017) Development of an Acrylate Derivative Targeting the NLRP3 Inflammasome for the Treatment of Inflammatory Bowel Disease. J. Med. Chem. 60, 3656-3671). 10 μM ultrapure ATP was then added, and reaction mixtures were further incubated for 45 min. ATP conversion into ADP was determined using the ADP-Glo Kinase Assay (Promega), following the recommendations of the manufacturer, in a SpectraMax i3x Multimode Detection Platform.
# T1 sequence (Q8R4B8 whole entry): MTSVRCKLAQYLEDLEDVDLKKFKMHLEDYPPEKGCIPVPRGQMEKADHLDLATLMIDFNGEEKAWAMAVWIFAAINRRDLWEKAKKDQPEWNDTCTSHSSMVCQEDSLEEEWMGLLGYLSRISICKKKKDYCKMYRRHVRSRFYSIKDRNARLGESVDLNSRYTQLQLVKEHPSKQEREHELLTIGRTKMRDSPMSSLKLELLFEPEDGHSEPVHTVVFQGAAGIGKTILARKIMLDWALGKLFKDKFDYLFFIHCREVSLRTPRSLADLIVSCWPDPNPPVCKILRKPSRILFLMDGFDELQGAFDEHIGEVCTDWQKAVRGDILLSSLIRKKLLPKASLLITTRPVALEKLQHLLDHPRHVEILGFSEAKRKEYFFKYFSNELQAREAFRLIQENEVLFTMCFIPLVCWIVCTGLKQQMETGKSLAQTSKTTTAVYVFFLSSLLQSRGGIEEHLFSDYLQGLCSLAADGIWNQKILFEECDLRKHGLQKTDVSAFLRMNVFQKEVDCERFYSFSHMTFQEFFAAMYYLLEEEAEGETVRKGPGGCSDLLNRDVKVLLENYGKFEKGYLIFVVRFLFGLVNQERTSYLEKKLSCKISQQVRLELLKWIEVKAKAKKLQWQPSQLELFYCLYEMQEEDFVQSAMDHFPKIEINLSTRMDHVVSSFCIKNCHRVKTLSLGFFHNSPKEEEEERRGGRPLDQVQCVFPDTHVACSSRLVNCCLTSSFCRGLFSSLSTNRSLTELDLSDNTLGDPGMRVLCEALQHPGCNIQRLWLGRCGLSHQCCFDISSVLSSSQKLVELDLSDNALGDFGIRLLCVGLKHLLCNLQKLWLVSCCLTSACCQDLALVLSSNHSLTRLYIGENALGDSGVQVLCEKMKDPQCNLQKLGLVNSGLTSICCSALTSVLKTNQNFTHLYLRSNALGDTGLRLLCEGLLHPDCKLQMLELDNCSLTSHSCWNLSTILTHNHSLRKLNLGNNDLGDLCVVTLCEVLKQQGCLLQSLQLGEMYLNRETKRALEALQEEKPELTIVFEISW
# T2 sequence (Q96P20 whole entry): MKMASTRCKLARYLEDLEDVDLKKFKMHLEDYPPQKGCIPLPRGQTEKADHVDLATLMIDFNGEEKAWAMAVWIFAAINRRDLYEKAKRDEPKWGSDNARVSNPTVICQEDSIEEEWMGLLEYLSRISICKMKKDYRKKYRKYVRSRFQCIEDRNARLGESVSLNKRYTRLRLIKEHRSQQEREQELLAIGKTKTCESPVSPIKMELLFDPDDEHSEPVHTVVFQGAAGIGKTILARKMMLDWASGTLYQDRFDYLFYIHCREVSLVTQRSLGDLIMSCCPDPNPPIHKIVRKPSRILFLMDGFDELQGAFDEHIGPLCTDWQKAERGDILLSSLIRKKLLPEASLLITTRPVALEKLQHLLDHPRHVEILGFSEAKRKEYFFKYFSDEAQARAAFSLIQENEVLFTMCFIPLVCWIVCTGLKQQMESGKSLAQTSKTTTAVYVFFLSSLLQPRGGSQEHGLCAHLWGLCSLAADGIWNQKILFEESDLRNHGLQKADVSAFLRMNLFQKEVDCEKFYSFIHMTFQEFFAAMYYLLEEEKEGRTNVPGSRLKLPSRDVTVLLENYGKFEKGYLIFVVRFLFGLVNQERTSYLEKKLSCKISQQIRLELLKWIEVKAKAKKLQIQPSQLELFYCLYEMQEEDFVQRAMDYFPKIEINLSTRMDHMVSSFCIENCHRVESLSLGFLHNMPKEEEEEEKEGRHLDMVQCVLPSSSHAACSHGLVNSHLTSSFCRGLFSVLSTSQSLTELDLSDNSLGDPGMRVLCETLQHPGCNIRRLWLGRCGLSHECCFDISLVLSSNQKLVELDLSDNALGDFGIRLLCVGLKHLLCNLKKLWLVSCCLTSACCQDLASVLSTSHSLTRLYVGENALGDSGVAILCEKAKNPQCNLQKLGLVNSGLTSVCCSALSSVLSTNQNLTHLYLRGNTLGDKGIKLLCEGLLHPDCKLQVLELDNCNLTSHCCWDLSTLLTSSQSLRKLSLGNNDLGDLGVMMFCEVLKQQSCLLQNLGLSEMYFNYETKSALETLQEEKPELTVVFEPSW
structure (smiles),measurement,setting,value
O=C(Cn1c(=O)oc2ccccc21)NCc1cncc(-c2ccsc2)c1 [Compound C77],inhibition of IL-1β release upon NLRP3 activation,"[1]; 100 μM compound, microglia, LPS and ATP",inhibited NLRP3 with statistical significance
same,concentrations exerting inhibitory effects on NLRP3-mediated IL-1β,"[1]; FIG. 2C, microglia, LPS and ATP",≥ 100 nM
same,IC50,"[1]; FIG. 3A, read-out: NLRP3 IC50",3.54 ± 1.3 µM
same,[Cx] to reach 100% of inhibition,"[1]; IL-1β release, microglia, LPS and ATP",lower than 25 μM
same,IC50,"[1]; IL-1β release, microglia, LPS and ATP, nonlinear fit of dose-response, read-out: IC50",4.1 ± 2.1 µM
same,concentrations with observable reduction of speck positive cells,[2],≥ 10 nM
same,toxicity on microglia cultures,[3]; 50 μM,significantly reduced the viability of the culture
same,toxicity on microglia cultures,[3]; concentrations lower than 50 μM,did not show significant toxicity levels
same,concentrations with statistically significant inhibition of NLRP3 ATPase activity,[4],≥ 10 nM
same,IC50,[4]; nonlinear fit,0.04 µM
